Biological target: T1, BTK (Homo sapiens, UniProt Q06187)
T1 construct: endogenous in cells; host or cells: Mino cells
Test: BTK degradation activity test in Mino cells
Assay type: cell-based
Settings: 16 h incubation, Western blot or Elisa
Method in brief: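 DC50 derived by curve fitting of BTK degradation rates versus untreated control across compound concentrations. Mino cells were exposed for 16 h; BTK levels in lysates, normalised via BCA protein, measured by Western blot or ELISA.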

T1 sequence (Q06187 whole entry): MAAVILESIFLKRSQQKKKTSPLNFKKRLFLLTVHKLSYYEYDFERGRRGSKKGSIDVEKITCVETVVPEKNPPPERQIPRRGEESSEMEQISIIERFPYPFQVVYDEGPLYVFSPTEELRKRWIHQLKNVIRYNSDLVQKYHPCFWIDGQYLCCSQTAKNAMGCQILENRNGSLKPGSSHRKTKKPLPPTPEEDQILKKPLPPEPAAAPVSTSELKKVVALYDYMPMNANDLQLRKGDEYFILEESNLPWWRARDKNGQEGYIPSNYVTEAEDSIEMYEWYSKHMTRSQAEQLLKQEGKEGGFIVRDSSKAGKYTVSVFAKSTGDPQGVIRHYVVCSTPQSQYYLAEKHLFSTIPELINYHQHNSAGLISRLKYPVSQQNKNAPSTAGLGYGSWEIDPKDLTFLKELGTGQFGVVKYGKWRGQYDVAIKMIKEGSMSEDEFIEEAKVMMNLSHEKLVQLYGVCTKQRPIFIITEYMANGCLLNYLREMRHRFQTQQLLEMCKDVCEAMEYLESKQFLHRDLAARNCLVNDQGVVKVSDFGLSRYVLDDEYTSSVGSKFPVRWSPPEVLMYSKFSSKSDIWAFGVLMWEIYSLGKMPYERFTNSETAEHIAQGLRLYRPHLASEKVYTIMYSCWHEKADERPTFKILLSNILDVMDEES

Compound | DC50 [nM]
Cc1cc(C#CCN2CCN(c3ccc(Nc4nc(N5CCC[C@@H](N6CCN(C)C6=O)C5)nnc4C(N)=O)cc3F)CC2)ccc1C(=O)NC1CCC(=O)NC1=O (stereo partly drawn) [Compound 226, 5-((4-(4-(3-(4-((2,6-dioxopiperidin-3-yl)carbamoyl)-3-methylphenyl)propan-2-yn-1-yl)piperazin-1-yl)-3-fluorophenyl)amino)-3-((R)-3-(3-methyl-2-oxoimidazolidin-1-yl)piperidin-1-yl)-1,2,4-triazin-6-carboxamide] | < 1
CN1CCN([C@@H]2CCCN(c3nnc(C(N)=O)c(Nc4ccc(N5CCN(CC#Cc6ccc(NC7CCC(=O)NC7=O)c(F)c6)CC5)c(F)c4)n3)C2)C1=O (stereo partly drawn) [Compound 228, 5-((4-(4-(3-(4-((2,6-dioxopiperidin-3-yl)amino)-3-fluorophenyl)propan-2-yn-1-yl)piperazin-1-yl)-3-fluorophenyl)amino)-3-((R)-3-(3-methyl-2-oxoimidazolidin-1-yl)piperidin-1-yl)-1,2,4-triazin-6-carboxamide] | < 1
CN1CCN([C@@H]2CCCN(c3nnc(C(N)=O)c(Nc4ccc(N5CCN(CC#Cc6ccc(NC7CCC(=O)NC7=O)c7ocnc67)CC5)c(F)c4)n3)C2)C1=O (stereo partly drawn) [Compound 229, 5-((4-(4-(3-(7-((2,6-dioxopiperidin-3-yl)amino)benzo[d]oxazol-4-yl)propan-2-yn-1-yl)piperazin-1-yl)-3-fluorophenyl)amino)-3-((R)-3-(3-methyl-2-oxoimidazolidin-1-yl)piperidin-1-yl)-1,2,4-triazin-6-carboxamide] | < 1
CN1CCN([C@@H]2CCCN(c3nnc(C(N)=O)c(Nc4ccc(N5CCN(CC#Cc6ccc(C(=O)NC7CCC(=O)NC7=O)s6)CC5)c(F)c4)n3)C2)C1=O (stereo partly drawn) [Compound 230, 5-((4-(4-(3-(5-((2,6-dioxopiperidin-3-yl)carbamoyl)thiophen-2-yl)propan-2-yn-1-yl)piperazin-1-yl)-3-fluorophenyl)amino)-3-((R)-3-(3-methyl-2-oxoimidazolidin-1-yl)piperidin-1-yl)-1,2,4-triazin-6-carboxamide] | < 1
CN1CCN([C@@H]2CCCN(c3nnc(C(N)=O)c(Nc4cc(F)c5c(c4)CCN(CC4CCN(c6ccc7c(c6)C(=O)N(C6CCC(=O)NC6=O)C7=O)CC4)CC5)n3)C2)C1=O (stereo partly drawn) [Compound 231, 5-((3-((1-(2-(2,6-dioxopiperidin-3-yl)-1,3-dioxoisoindolin-5-yl)piperidin-4-yl)methyl)-9-fluoro-2,3,4,5-tetrahydro-1H-benzo[d]azepin-7-yl)amino)-3-((R)-3-(3-methyl-2-oxoimidazolidin-1-yl)piperidin-1-yl)-1,2,4-triazin-6-carboxamide] | < 1
CN1CCN([C@@H]2CCCN(c3nnc(C(N)=O)c(Nc4ccc(N5CCN(CC6CCN(c7ccc(N8CCC(=O)NC8=O)c(C(N)=O)c7)CC6)CC5)c(F)c4)n3)C2)C1=O [Compound 233, (R)-5-((4-(4-((1-(3-carbamoyl-4-(2,4-dioxotetrahydropyrimidin-1(2H)-yl)phenyl)piperidin-4-yl)methyl)piperazin-1-yl)-3-fluorophenyl)amino)-3-(3-(3-methyl-2-oxoimidazolidin-1-yl)piperidin-1-yl)-1,2,4-triazin-6-carboxamide] | < 1
CN1CCN([C@@H]2CCCN(c3nnc(C(N)=O)c(Nc4ccc(N5CCN(CC6CCN(c7ccc(N8CCC(=O)NC8=O)cc7)CC6)C(=O)C5)c(F)c4)n3)C2)C1=O [Compound 235, (R)-5-((4-(4-((1-(4-(2,4-dioxotetrahydropyrimidin-1(2H)-yl)phenyl)piperidin-4-yl)methyl)-3-oxopiperazin-1-yl)-3-fluorophenyl)amino)-3-(3-(3-methyl-2-oxoimidazolidin-1-yl)piperidin-1-yl)-1,2,4-triazin-6-carboxamide] | < 1
Cc1cc(N2CCC(CN3CCC(c4ccc(Nc5nc(N6CCC[C@@H](N7CCN(C)C7=O)C6)nnc5C(N)=O)cc4CO)CC3)CC2)ccc1N1CCC(=O)NC1=O [Compound 237, (R)-5-((4-(1-((1-(4-(2,4-dioxotetrahydropyrimidin-1(2H)-yl)-3-methylphenyl)piperidin-4-yl)methyl)piperidin-4-yl)-3-(hydroxymethyl)phenyl)amino)-3-(3-(3-methyl-2-oxoimidazolidin-1-yl)piperidin-1-yl)-1,2,4-triazin-6-carboxamide] | < 1
Cc1cc(N2CCC(CN3CCC(c4ccc(Nc5nc(N6CCC[C@@H](N7CCN(C)C7=O)C6)nnc5C(N)=O)c(CO)c4)CC3)CC2)ccc1N1CCC(=O)NC1=O [Compound 238, (R)-5-((4-(1-((1-(4-(2,4-dioxotetrahydropyrimidin-1(2H)-yl)-3-methylphenyl)piperidin-4-yl)methyl)piperidin-4-yl)-2-(hydroxymethyl)phenyl)amino)-3-(3-(3-methyl-2-oxoimidazolidin-1-yl)piperidin-1-yl)-1,2,4-triazin-6-carboxamide] | < 1
Cc1cc(N2CC(CC(=O)N3CCC(c4ccc(Nc5nc(N6CCC[C@@H](N7CCN(C)C7=O)C6)nnc5C(N)=O)c(CO)c4)CC3)C2)ccc1N1CCC(=O)NC1=O [Compound 239, (R)-5-((4-(1-(2-(1-(4-(2,4-dioxotetrahydropyrimidin-1(2H)-yl)-3-methylphenyl)azetidin-3-yl)acetyl)piperidin-4-yl)-2-(hydroxymethyl)phenyl)amino)-3-(3-(3-methyl-2-oxoimidazolidin-1-yl)piperidin-1-yl)-1,2,4-triazin-6-carboxamide] | < 1
CN1CCN([C@@H]2CCCN(c3nnc(C(N)=O)c(Nc4ccc(C5CCN(CC6CCN(c7ccc(N8CCC(=O)NC8=O)cc7)CC6)CC5)c(CO)c4)n3)C2)C1=O [Compound 240, (R)-5-((4-(1-((1-(4-(2,4-dioxotetrahydropyrimidin-1(2H)-yl)phenyl)piperidin-4-yl)methyl)piperidin-4-yl)-3-(hydroxymethyl)phenyl)amino)-3-(3-(3-methyl-2-oxoimidazolidin-1-yl)piperidin-1-yl)-1,2,4-triazin-6-carboxamide] | < 1
Cc1cc(N2CCC(CN3CCC(c4ccc(Nc5nc(N6CCC[C@@H](N7CCN(C)C7=O)C6)c(F)nc5C(N)=O)cc4F)CC3)CC2)ccc1N1CCC(=O)NC1=O [Compound 241, (R)-3-((4-(1-((1-(4-(2,4-dioxotetrahydropyrimidin-1(2H)-yl)-3-methylphenyl)piperidin-4-yl)methyl)piperidin-4-yl)-3-fluorophenyl)amino)-6-fluoro-5-(3-(3-methyl-2-oxoimidazolidin-1-yl)piperidin-1-yl)pyrazin-2-carboxamide] | < 1
Cc1cc(N2CCC(CN3CCC(c4ccc(Nc5c(F)c(N6CCC[C@@H](N7CCN(C)C7=O)C6)c(F)c(F)c5C(N)=O)cc4F)CC3)CC2)ccc1N1CCC(=O)NC1=O [Compound 242, (R)-2-((4-(1-((1-(4-(2,4-dioxotetrahydropyrimidin-1(2H)-yl)-3-methylphenyl)piperidin-4-yl)methyl)piperidin-4-yl)-3-fluorophenyl)amino)-3,5,6-trifluoro-4-(3-(3-methyl-2-oxoimidazolidin-1-yl)piperidin-1-yl)benzamide] | < 1
CN1CCN([C@@H]2CCCN(c3nnc(C(N)=O)c(Nc4ccc(N5CCN(CC6CCN(c7ccc8c(C9CCC(=O)NC9=O)noc8c7)CC6)CC5)c(F)c4)n3)C2)C1=O (stereo partly drawn) [Compound 243, 5-((4-(4-((1-(3-(2,6-dioxopiperidin-3-yl)benzo[d]isoxazol-6-yl)piperidin-4-yl)methyl)piperazin-1-yl)-3-fluorophenyl)amino)-3-((R)-3-(3-methyl-2-oxoimidazolidin-1-yl)piperidin-1-yl)-1,2,4-triazin-6-carboxamide] | < 1
CN1CCN([C@@H]2CCCN(c3nnc(C(N)=O)c(Nc4ccc(N5CCN(CC6CCN(c7ccn8c(C9CCC(=O)NC9=O)cnc8c7)CC6)CC5)c(F)c4)n3)C2)C1=O (stereo partly drawn) [Compound 244, 5-((4-(4-((1-(3-(2,6-dioxopiperidin-3-yl)imidazo[1,2-a]pyridin-7-yl)piperidin-4-yl)methyl)piperazin-1-yl)-3-fluorophenyl)amino)-3-((R)-3-(3-methyl-2-oxoimidazolidin-1-yl)piperidin-1-yl)-1,2,4-triazin-6-carboxamide] | < 1
CN1CCN([C@@H]2CCCN(c3nnc(C(N)=O)c(Nc4ccc(N5CCN(CC6CCN(c7ccn8c(N9CCC(=O)NC9=O)cnc8c7)CC6)CC5)c(F)c4)n3)C2)C1=O [Compound 245] | < 1
CN1CCN([C@@H]2CCCN(c3nnc(C(N)=O)c(Nc4ccc(N5CCN(CC#Cc6ccn7c(N8CCC(=O)NC8=O)cnc7c6)CC5)c(F)c4)n3)C2)C1=O [Compound 246, (R)-5-((4-(4-(3-(3-(2,4-dioxotetrahydropyrimidin-1(2H)-yl)imidazo[1,2-a]pyridin-7-yl)propan-2-yn-1-yl)piperazin-1-yl)-3-fluorophenyl)amino)-3-(3-(3-methyl-2-oxoimidazolidin-1-yl)piperidin-1-yl)-1,2,4-triazin-6-carboxamide] | < 1
CN1CCN([C@@H]2CCCN(c3nnc(C(N)=O)c(Nc4ccc(N5CCN(CC6CCN(c7ccc8c9c(cccc79)C(=O)N8C7CCC(=O)NC7=O)CC6)CC5)c(F)c4)n3)C2)C1=O (stereo partly drawn) [Compound 247, 5-((4-(4-((1-(1-(2,6-dioxopiperidin-3-yl)-2-oxo-1,2-dihydrobenzo[cd]indol-6-yl)piperidin-4-yl)methyl)piperazin-1-yl)-3-fluorophenyl)amino)-3-((R)-3-(3-methyl-2-oxoimidazolidin-1-yl)piperidin-1-yl)-1,2,4-triazin-6-carboxamide] | < 1
CN1CCN([C@@H]2CCCN(c3nnc(C(N)=O)c(Nc4ccc(N5CCN(CC#Cc6ccc7c8c(cccc68)C(=O)N7C6CCC(=O)NC6=O)CC5)c(F)c4)n3)C2)C1=O (stereo partly drawn) [Compound 248, 5-((4-(4-(3-(1-(2,6-dioxopiperidin-3-yl)-2-oxo-1,2-dihydrobenzo[cd]indol-6-yl)propan-2-yn-1-yl)piperazin-1-yl)-3-fluorophenyl)amino)-3-((R)-3-(3-methyl-2-oxoimidazolidin-1-yl)piperidin-1-yl)-1,2,4-triazin-6-carboxamide] | < 1
